Results: PubChem BioAssay AID1845194 (Molecular Pharmacology Branch, DTP, NCI, 2023)
pIC50: −log10 of the molar value.

Tested on: 287954-098-R-J1 tumor spheroid viability
Test: Anticancer human tumor 287954-098-R-J1 patient-derived Ewing sarcoma cell line growth inhibition
Conditions: spheroids with HUVEC and MSC; for pIC50: curve of first compound; for viability, T/C: stronger effect = lower value
Description: Multicellular complex tumor spheroid response to DNA repair inhibitors in combination with DNA-damaging drugs
This study explores the anticancer activities of DNA-damaging drugs and inhibitors of DNA damage repair, both as single agents and in combinations. Complex tumor spheroids comprised of malignant cells, endothelial cells and mesenchymal stem cells served as an in vitro model for human solid tumors. This model system incorporates physiologically relevant features and patient-derived or established malignant cell lines with clinically relevant genetic alterations from many tumor types. Twenty-six patient-derived or established malignant cell lines were evaluated representing sarcoma, melanoma, small cell lung cancer (SCLC), non-small cell lung cancer (NSCLC), as well as bladder, ovarian and pancreatic cancers. The concentration ranges selected for each drug and investigational agent were based upon clinically achievable concentrations if the clinical Cmax of the agent was known.
Compounds. The drugs and compounds olaparib (NSC753686), talazoparib (NSC767125), berzosertib (NSC777718), elimusertib (NSC800525), nedisertib (NSC802822), VX-984 (NSC792969), AZD-1390 (NSC803789), temozolomide (NSC362856), topotecan (NSC609699), trabectedin (NSC813783), staurosporine (NSC755774), and gemcitabine (NSC613327) were obtained from the National Cancer Institute (NCI) Developmental Therapeutics Program Chemical Repository. The FDA-approved anticancer drug set is available from the Developmental Therapeutics Program at https://dtp.cancer.gov/organization/dscb/obtaining/available_plates.htm. […] The stock solutions were prepared in dimethyl sulfoxide (DMSO, Sigma-Aldrich, St. Louis, MO, cat. D2650) at 400-fold the tested concentration and stored at -70 degrees C. Prior to their use, the stock solutions were diluted in fresh medium and the final DMSO concentration in the assay was 0.25% (v/v). All drugs and investigational agents were tested over a range starting from a high concentration at or near the clinical Cmax and decreasing in half-log increments. If the clinical Cmax for an agent had not been determined, the highest concentration tested was 10 microM.
Cell Lines. The patient-derived cancer cell (PDC) lines: 156681-154-R-J1-PDC, 283228-195-R-J1-PDC, 287954-098-R-J1-PDC, 292921-168-R-J2-PDC, 349418-098-R-PDC, 425362-245-T-J1-PDC, 556581-035-R-J1-PDC, and BL0293-F563-PDC were received from the NCI Patient-Derived Models Repository (PDMR, https://pdmr.cancer.gov). The established cell lines HS-SY-2 (RRID:CVCL_8719), MPNST, and SYO-1 (RRID:CVCL_7146) were obtained from the Sloan Kettering Institute. The alveolar soft parts sarcoma cell line ASPS-1 (RRID:CVCL_S738) was established at the NCI and grown from internal seed stocks. The following established cell lines were purchased from the American Type Culture Collection (ATCC, Manassas, VA): G-401 (ATCC, cat. CRL-1441, RRID:CVCL_0270), SW982 (ATCC, cat. HTB-93, RRID:CVCL_1734), VA-ES-BJ (ATCC, cat. CRL-2138, RRID:CVCL_1785), NCI-H719 (ATCC, cat. CRL-5837, RRID:CVCL_1582), NCI-H196 (ATCC, cat. CRL-5823, RRID:CVCL_1509), NCI-H841 (ATCC, cat. CRL-5845, RRID:CVCL_1595), NCI-H1618 (ATCC, cat. CRL-5879, RRID:CVCL_1480), NCI-H1876 (ATCC, cat. CRL-5902, RRID:CVCL_1503), DMS 114 (ATCC, cat. CRL-2066; RRID:CVCL_1174), NCI-H211 (ATCC, cat. CRL-5824; RRID:CVCL_1529), and SW 1271 (ATCC, cat. CRL-2177, RRID:CVCL_1716). The small cell lung cancer cell line COR-L88 was purchased from Sigma-Aldrich (cat. 92031917-1VL, RRID:CVCL_1141). The non-small cell lung cancer cell lines NCI-H226 (RRID:CVCL_1544) and NCI-H322M (RRID:CVCL_1557) were established at the NCI and grown from internal seed stocks. Pooled donor human umbilical vein endothelial cells (HUVEC, Lonza, cat. CC-2519) and human mesenchymal stem cells (hMSC, Lonza, cat. PT-2501) were purchased from Lonza (Walkersville, MD).
Cell Culture. All cells were maintained in an incubator at 37 degrees C and 5% CO2 with 95% humidity. […]
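Also: spheroids exposed to compound for 7 days before viability readout.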
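For viability, T/C in this document: luminescent signal taken as surrogate of viable cell content; 100% = DMSO vehicle control viability and lower means growth inhibition.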

Cn1ncnc1[C@H]1c2n[nH]c(=O)c3cc(F)cc(c23)N[C@@H]1c1ccc(F)cc1 + COc1cc2c(cc1O)CCNC21CSC2c3c(OC(C)=O)c(C)c4c(c3C(COC1=O)N1C(O)C3Cc5cc(C)c(OC)c(O)c5C(C21)N3C)OCO4
pIC50 (second compound 30 pM): 6.24 | pIC50 (second compound 94.9 pM): 6.32 | pIC50 (second compound 0.0003 µM): 7.41 | pIC50 (second compound 0.000949 µM): > 8.02 | pIC50 (second compound 0.003 µM): > 8.02 | viability, T/C (second compound 30 pM, first compound 0.00949 µM): 99% | viability, T/C (second compound 30 pM, first compound 0.03 µM): 111% | viability, T/C (second compound 30 pM, first compound 0.0949 µM): 102% | viability, T/C (second compound 30 pM, first compound 0.3 µM): 97.6% | viability, T/C (second compound 30 pM, first compound 0.949 µM): 13.3% | viability, T/C (second compound 30 pM, first compound 3 µM): 1.27% | viability, T/C (second compound 94.9 pM, first compound 0.00949 µM): 107% | viability, T/C (second compound 94.9 pM, first compound 0.03 µM): 104% | viability, T/C (second compound 94.9 pM, first compound 0.0949 µM): 106% | viability, T/C (second compound 94.9 pM, first compound 0.3 µM): 82.7% | viability, T/C (second compound 94.9 pM, first compound 0.949 µM): 1.42% | viability, T/C (second compound 94.9 pM, first compound 3 µM): 1.02% | viability, T/C (second compound 0.0003 µM, first compound 0.00949 µM): 81.8% | viability, T/C (second compound 0.0003 µM, first compound 0.03 µM): 63% | viability, T/C (second compound 0.0003 µM, first compound 0.0949 µM): 6% | viability, T/C (second compound 0.0003 µM, first compound 0.3 µM): 1.31% | viability, T/C (second compound 0.0003 µM, first compound 0.949 µM): 0.92% | viability, T/C (second compound 0.0003 µM, first compound 3 µM): 0.91% | viability, T/C (second compound 0.000949 µM, first compound 0.00949 µM): 0.31% | viability, T/C (second compound 0.000949 µM, first compound 0.03 µM): 0.21% | viability, T/C (second compound 0.000949 µM, first compound 0.0949 µM): 0.23% | viability, T/C (second compound 0.000949 µM, first compound 0.3 µM): 0.13% | viability, T/C (second compound 0.000949 µM, first compound 0.949 µM): 0.04% | viability, T/C (second compound 0.000949 µM, first compound 3 µM): 0.12% | viability, T/C (second compound 0.003 µM, first compound 0.00949 µM): 0.16% | viability, T/C (second compound 0.003 µM, first compound 0.03 µM): 0.17% | viability, T/C (second compound 0.003 µM, first compound 0.0949 µM): 0.13% | viability, T/C (second compound 0.003 µM, first compound 0.3 µM): 0.12% | viability, T/C (second compound 0.003 µM, first compound 0.949 µM): 0.12% | viability, T/C (second compound 0.003 µM, first compound 3 µM): 0.2%
